The molecules below were run against T1, IL23R (Homo sapiens, UniProt Q5VWK5) (assay: Competing with IL23 for binding to IL23R (HTRF, IL23/IL23R binding assay kit)). Conditions: 2 hours incubation at room temperature.
T1 construct: Tag2 (identity not disclosed); purchased PerkinElmer 64BDPIL23PEH
T1 sequence (Q5VWK5 24-355 limits assumed): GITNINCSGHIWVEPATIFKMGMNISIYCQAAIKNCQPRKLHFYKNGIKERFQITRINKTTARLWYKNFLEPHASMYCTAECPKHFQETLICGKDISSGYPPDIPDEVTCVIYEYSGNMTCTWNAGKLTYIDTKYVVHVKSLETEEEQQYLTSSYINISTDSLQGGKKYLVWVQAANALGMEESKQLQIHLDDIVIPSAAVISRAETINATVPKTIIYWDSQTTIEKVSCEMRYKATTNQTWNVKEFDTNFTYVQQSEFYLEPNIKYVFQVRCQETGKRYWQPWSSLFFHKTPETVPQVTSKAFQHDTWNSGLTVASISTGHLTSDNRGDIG
Description: (§1) The compounds of the present disclosure were screened in IL23/IL23R BINDING ASSAY KITS (PerkinElmer Cat #64BDPIL23PEH). The screening of the compounds of the present disclosure was carried out by using a multi-well plate (suitable for HTRF determination). Generally, 2 μl of several compounds of the present disclosure and STANDARD SOLUTIONS in KIT were first respectively added to the wells of the multi-well plate. 4 μl of Tag1-IL23, 4 μl of Tag2-IL23R, and 10 μL of pre-mixed Anti-Tag1 Eu Cryptate Antibody and Anti-Tag2 d2 reagent were necessarily added to all the wells. The multi-well plate was protected from light by an opaque cover membrane, and the opaque cover membrane was then removed
as §1, with “removed after 2 hours of incubation at room temperature. The signal value was read by an HTRF-compatible detection instrument to detect IC50 value.” for “removed”
The inhibition rate was calculated as follows: […]
By using log (inhibitor) vs. response—Variable slope (four parameters) in Graphpad, the data of HTRF experiment results were subjected to non-linear regression fitting to fit a curve and obtain the IC50 value.

Question: With CC(=O)NCCCC[C@@H]1NC(=O)[C@H](Cc2c[nH]c3c(C)cccc23)NC(=O)[C@H]([C@@H](C)O)NC(=O)[C@H](CC(N)=O)NC(=O)[C@@H](NC(C)=O)C(C)(C)SSC(C)(C)[C@@H](C(=O)N[C@@H](Cc2ccc(OCCN)cc2)C(=O)N[C@@H](Cc2ccc3ccccc3c2)C(=O)NC2(C(=O)N[C@@H](CCC(=O)O)C(=O)N[C@@H](CC(N)=O)C(=O)N[C@@H](Cc3cccnc3)C(=O)N(C)CCNC(=O)CCOCCOCC[N+](C)(C)C)CCOCC2)NC1=O [Example 3] as the molecule, how does the IC50 read?
Answer: 1.23 nM

Question: CC(=O)NCCCC[C@@H]1NC(=O)[C@H](Cc2c[nH]c3c(C)cccc23)NC(=O)[C@H]([C@@H](C)O)NC(=O)[C@H](CC(N)=O)NC(=O)[C@@H](NC(C)=O)C(C)(C)SSC(C)(C)[C@@H](C(=O)N[C@@H](Cc2ccc(OCCN)cc2)C(=O)N[C@@H](Cc2ccc3ccccc3c2)C(=O)NC2(C(=O)N[C@@H](CCC(=O)O)C(=O)N[C@@H](CC(N)=O)C(=O)N[C@@H](Cc3cccnc3)C(=O)N(C)CCNC(=O)CCCCC[N+](C)(C)C)CCS(=O)(=O)CC2)NC1=O [Example 4-19] was tested. Which IC50 did it give?
Answer: 1.18 nM

Question: For CC(=O)NCCCC[C@@H]1NC(=O)[C@H](Cc2c[nH]c3c(C)cccc23)NC(=O)[C@H]([C@@H](C)O)NC(=O)[C@H](CC(N)=O)NC(=O)[C@@H](NC(C)=O)C(C)(C)SSC(C)(C)[C@@H](C(=O)N[C@@H](Cc2ccc(OCCN)cc2)C(=O)N[C@@H](Cc2ccc3ccccc3c2)C(=O)NC2(C(=O)N[C@@H](CCC(=O)O)C(=O)N[C@@H](CC(N)=O)C(=O)N[C@@H](Cc3ccncc3)C(=O)N(C)CC(N)=O)CCC(F)(F)CC2)NC1=O [Example 1-14], which IC50 is on record?
Answer: 1.14 nM

Question: CC(=O)NCCCC[C@@H]1NC(=O)[C@H](Cc2c[nH]c3c(C)cccc23)NC(=O)[C@H]([C@@H](C)O)NC(=O)[C@H](CC(N)=O)NC(=O)[C@@H](NC(C)=O)C(C)(C)SSC(C)(C)[C@@H](C(=O)N[C@@H](Cc2ccc(OCCN)cc2)C(=O)N[C@@H](Cc2ccc3ccccc3c2)C(=O)NC2(C(=O)N[C@@H](CCC(=O)O)C(=O)N[C@@H](CC(N)=O)C(=O)N[C@@H](Cc3cccnc3)C(=O)N(C)CCNC(=O)CCCCC[N+](C)(C)C)CCC(F)(F)CC2)NC1=O [Example 1-19] was tested. Which IC50 did it give?
Answer: 1.35 nM

Question: For CC(=O)NCCCC[C@@H]1NC(=O)[C@H](Cc2c[nH]c3c(C)cccc23)NC(=O)[C@H]([C@@H](C)O)NC(=O)[C@H](CC(N)=O)NC(=O)[C@@H](NC(C)=O)C(C)(C)SSC(C)(C)[C@@H](C(=O)N[C@@H](Cc2ccc(OCCN)cc2)C(=O)N[C@@H](Cc2ccc3ccccc3c2)C(=O)NC2(C(=O)N[C@@H](CCC(=O)O)C(=O)N[C@@H](CC(N)=O)C(=O)N[C@@H](Cc3cccnc3)C(=O)N(C)CCNC(=O)CCCCC[N+](C)(C)C)CCSCC2)NC1=O [Example 3-19], which IC50 is on record?
Answer: 1.13 nM

Question: CC(=O)NCCCC[C@@H]1NC(=O)[C@H](Cc2c[nH]c3c(C)cccc23)NC(=O)[C@H]([C@@H](C)O)NC(=O)[C@H](CC(N)=O)NC(=O)[C@@H](NC(C)=O)C(C)(C)SSC(C)(C)[C@@H](C(=O)N[C@@H](Cc2ccc(OCCN)cc2)C(=O)N[C@@H](Cc2ccc3ccccc3c2)C(=O)NC2(C(=O)N[C@@H](CCC(=O)O)C(=O)N[C@@H](CC(N)=O)C(=O)N[C@@H](Cc3cccnc3)C(=O)N(C)CCNC(=O)CCCCC[N+](C)(C)C)CCOCC2)NC1=O [Example 12] was tested. Which IC50 did it give?
Answer: 1.14 nM

Question: With CC(=O)NCCCC[C@@H]1NC(=O)[C@H](Cc2c[nH]c3c(C)cccc23)NC(=O)[C@H]([C@@H](C)O)NC(=O)[C@H](CC(N)=O)NC(=O)[C@@H](NC(C)=O)C(C)(C)SSC(C)(C)[C@@H](C(=O)N[C@@H](Cc2ccc(OCCN)cc2)C(=O)N[C@@H](Cc2ccc3ccccc3c2)C(=O)NC2(C(=O)N[C@@H](CCC(=O)O)C(=O)N[C@@H](CC(N)=O)C(=O)N[C@@H](Cc3cccnc3)C(=O)N(C)CCNC(=O)COCCOCCNC(=O)COCCOCCNC(=O)CC[C@H](NC(=O)CCCCCCCCCCCCCCCCC(=O)O)C(=O)O)CCOCC2)NC1=O [Example 6] as the molecule, how does the IC50 read?
Answer: 1.25 nM

Reference: patent US20260193294A1, “POLYPEPTIDE INHIBITOR, AND PREPARATION METHOD THEREFOR AND USE THEREOF” (SHANGHAI HANSOH BIOMEDICAL CO., LTD., priority 2022, published 2026)
